Results taken from PubChem BioAssay AID463204 (Broad Institute, 2010).
Calls of active or inactive are those of the source.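 Rule for the calls: active = AC50 no more than ten times the top concentration tested, that is within one log above it; inconclusive = flat curve fit with activity between 30% and 70%, or invalid poor fit; inactive = AC50 beyond ten times the top tested dose.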

Tested on: S. cerevisiae Mot1-301 ts growth rescue, BacTiter-Glo ATP luminescence
Assay: restored Mot1-301 yeast growth at 38.5C – whole organism, S. cerevisiae, Mot1-301 ts mutant, luminescence, dose retest, SUMOylation pathway inhibitor project, confirmation (AID 463204);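 note: growth at restrictive 38.5 degrees C of Mot1-301 OY566 strain; actives raise luminescence by restoring growth of the ts mutant at high temperature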

Structure (SMILES) | AC50
CCC(Cc1ccccc1)NC(=O)C1CCN(c2nn3c(=O)cc(C)nc3s2)CC1 (stereo unspecified) | > 42 µM (inactive)
O=S(=O)(c1ccc(C2CCCCC2)cc1)N1CCCC1 | > 42 µM (inactive)
O=C(/C=C/N1CCOCC1)c1coc2ccccc12 | > 42 µM (inactive)
Clc1ccccc1-c1ccc2ncnc(NCc3cccs3)c2c1 | 37 µM
CCN(CC)CCNc1ncnc2c1[nH]c1ccc(OC)cc12 | > 42 µM (inactive)
COc1ccc(OC)c(N(CC(=O)N2CCCC2)S(=O)(=O)c2ccccc2)c1 | > 42 µM (inactive)
CCC(c1nnnn1C1CCCC1)N1CCN(c2cccc(OC)c2)CC1 (stereo unspecified) | > 21 µM (inactive)
CCc1c(C)c2ccc(OCC(=O)OC(C)C)c(C)c2oc1=O | > 42 µM (inactive)
CC1(C)CC(=O)C=C(OC(=O)c2ccc(Cl)cc2)C1 | > 42 µM (inactive)
CC1(C)NC(=O)N(CC(=O)O)C1=O | > 42 µM (inactive)
CC1CCN(C(=O)c2[nH]cnc2C(=O)NCC(=O)OCc2ccccc2)CC1 | > 42 µM (inactive)
CCOc1ncccc1C(=O)OCC(=O)N(CC)c1ccccc1 | > 42 µM (inactive)
CN(CC(=O)N1CCc2[nH]c3ccc(F)cc3c2C1)CC1OCCO1 | > 42 µM (inactive)
Cc1cc(C)c(NC(=O)CNC(=O)c2cc([N+](=O)[O-])ccc2N2CCOCC2)c(C)c1 | > 42 µM (inactive)
CC(NC(=O)CCc1nnc(-c2ccc(-c3ccccc3)cc2)o1)c1nc2ccccc2[nH]1 (stereo unspecified) | > 42 µM (inactive)
CCOC(=O)c1[nH]c2ccc(Br)cc2c1NC(=O)CCN1CCOCC1 | > 42 µM (inactive)
Cc1ccc(NC(=O)CN2C(=O)COc3ccc(S(=O)(=O)N4CCOCC4)cc32)cc1F | > 42 µM (inactive)
O=C(CCc1nc2sc3c(c2c(=O)[nH]1)CCCC3)N1CCN(c2ccccc2)CC1 | > 42 µM (inactive)
COC(=O)c1[nH]c2cc(C)ccc2c1NC(=O)CN1CCN(c2ccccc2OC)CC1 | > 21 µM (inactive)
C/C(CC(=O)Nc1cccc(Cl)c1Cl)=N\NC(=O)c1ccccc1C | > 42 µM (inactive)
CC(C)(C)NC(=S)NCc1cccnc1 | > 42 µM (inactive)
Cc1cc(C)n(C(=O)CNC(=O)c2ccc3c(c2)OCCO3)n1 | > 42 µM (inactive)
CCN(CC)S(=O)(=O)c1ccc(NC(=O)C(C)N(c2ccccc2)S(C)(=O)=O)cc1 (stereo unspecified) | > 42 µM (inactive)
COc1ccc(C)cc1NC(=O)Cn1c(=O)oc2ccccc21 | > 42 µM (inactive)
Cc1ccc(C(=O)NC(Cc2c[nH]c3ccccc23)C(=O)O)o1 (stereo unspecified) | > 42 µM (inactive)
O=C(c1cnn2c(C(F)(F)F)cc(-c3ccco3)nc12)N1CCCc2ccccc21 | > 42 µM (inactive)

Structure (SMILES) | AC50
S=c1[nH]nc(-c2ccco2)n1-c1ccc(Br)cc1 | > 42 µM (inactive)
CC(Oc1ccccc1[N+](=O)[O-])C(=O)N/N=C/c1ccoc1 (stereo unspecified) | > 42 µM (inactive)
c1ccc2c(c1)OCCOCCOc1ccccc1OCCOCCO2 | > 42 µM (inactive)
CCCCC(=O)Nc1nnc(/C=C/c2ccc(OC)cc2)s1 | > 42 µM (inactive)
O=C(Nc1ccccc1N1CCN(c2ccccc2)CC1)c1cccc(F)c1 | > 42 µM (inactive)
COCCNC(=O)C(=O)NCC1OCCN1C(=O)c1ccc(Cl)cc1 (stereo unspecified) | > 42 µM (inactive)
CCCCOc1ccc(C(O)C(CN2CCOCC2)c2ccccc2)cc1 (stereo unspecified) | > 42 µM (inactive)
Cc1ccc(CSCCNC(=O)c2ccc(NS(C)(=O)=O)cc2)cc1 | > 42 µM (inactive)
CCn1c(SCC(N)=O)nnc1-c1cc2c(C)nn(-c3ccccc3)c2s1 | > 42 µM (inactive)
CCOC(=O)Cn1c(=O)n(Cc2ccco2)c(=O)c2ccc(C(=O)NCCc3ccccc3)cc21 | > 42 µM (inactive)
CN1CCCC(n2nc(Cc3ccc(Cl)cc3)c3ccccc3c2=O)CC1 (stereo unspecified) | > 42 µM (inactive)
O=C(CSc1nnc(-c2cccs2)n1-c1ccccc1)c1ccc2c(c1)OCCO2 | > 42 µM (inactive)
CCCCOc1ccc(C(=O)Nc2ccc(CN3CCOCC3)cc2)cc1 | > 42 µM (inactive)
CCOC(=O)C1CCN(C(=O)c2sccc2Cl)CC1 | > 42 µM (inactive)
O=C(NNC(=O)c1ccc(-n2cncn2)c([N+](=O)[O-])c1)c1ccc(Cl)cc1 | > 42 µM (inactive)
O=[N+]([O-])c1ccccc1CN1CC=C(c2ccc(F)cc2)CC1 | > 42 µM (inactive)
CC(=O)c1c(N)[nH]c(-c2ccccc2)nc1=S | > 42 µM (inactive)
COc1ccc(CCC(=O)NNC(=S)Nc2cccc(C(C)=O)c2)cc1 | > 42 µM (inactive)
CC1CN=C(NCc2ccccc2)S1 (stereo unspecified) | > 42 µM (inactive)
CC(NC(=O)c1cnc2n(c1=O)CCS2)c1ccccc1 (stereo unspecified) | > 42 µM (inactive)
Cc1c(NC(C)c2cc(Cl)ccc2O)c(=O)n(-c2ccccc2)n1C (stereo unspecified) | > 42 µM (inactive)
CC1(C)Cc2c(c(N3CCCC3)nc3sc4c(N5CCN(CCO)CC5)ncnc4c23)CO1 | > 42 µM (inactive)
[N-]=[N+]=NCCN1CCC(O)CCC1=O (stereo unspecified) | > 42 µM (inactive)
N#CC(CC(=O)c1ccc(F)cc1)c1ccc2c(c1)OCO2 (stereo unspecified) | 40.2 µM
N#Cc1ccc(Oc2ccc(S(=O)(=O)N3CCCCC3)cn2)cc1 | > 42 µM (inactive)
Cc1ccnc(NC(=O)CNC(=O)c2ccc(Br)o2)c1 | > 42 µM (inactive)

Structure (SMILES) | AC50
O=C(O)c1cc(S(=O)(=O)Nc2ccc(OCc3ccccc3)cc2)ccc1Br | > 42 µM (inactive)
O=C1CCCN1CCC1CCN(C2CC(=O)N(c3ccc(Cl)cc3)C2=O)CC1 (stereo unspecified) | 10.1 µM
O=C1N=C(N2CCOCC2)S/C1=C\c1cccnc1 | > 42 µM (inactive)
CCOc1ccccc1C(=O)NCc1ccc2c(c1)OCO2 | > 42 µM (inactive)
COc1ccccc1C(=O)NCCNc1ccc([N+](=O)[O-])cc1Cl | > 110 µM (inactive)
O=c1[nH][nH]c(C(F)(F)F)c1C=NCc1cccs1 | > 42 µM (inactive)
O=S(=O)(c1ccccc1)N1CCN(c2nc3ccccc3s2)CC1 | > 42 µM (inactive)
Cc1cc(C)nc(SCC2COc3ccccc3O2)n1 (stereo unspecified) | > 42 µM (inactive)
COCCn1c(N)c(N(Cc2ccccc2)C(=O)CN2C(=O)NC(C)(c3ccccc3)C2=O)c(=O)[nH]c1=O (stereo unspecified) | > 42 µM (inactive)
Clc1ccc(CSc2nnc(CN3CCOCC3)n2-c2ccccc2)cc1Cl | > 42 µM (inactive)
COc1ccccc1NC(=O)N1CCN(C(=O)Nc2ccccc2OC)CC1 | > 42 µM (inactive)
COc1ccccc1-c1sc2ccccc2c1-c1ccc2c(c1)OCO2 | > 42 µM (inactive)
Cn1c(=NC(=O)COc2ccccc2)sc2cc(F)cc(F)c21 | > 42 µM (inactive)
Cc1ccc(NC(=O)Cn2c(CCC(=O)O)ccc2-c2cccs2)cc1 | > 42 µM (inactive)
S=C(NCCc1ccccc1)Nc1ccccc1Cl | > 42 µM (inactive)
O=C(Nc1ncccn1)c1ccc(C(F)(F)F)cc1 | > 42 µM (inactive)
CC1C(=O)CC(c2ccccc2)NC1c1ccccc1 (stereo unspecified) | > 42 µM (inactive)
Cc1ccccc1-c1nnc(CN2CCC(C)CC2)o1 | > 42 µM (inactive)
O=C(OCCCN=C1NS(=O)(=O)c2ccccc21)c1cccs1 | > 42 µM (inactive)
Cc1ccccc1Cn1cc(NC(=O)c2cc3nc(-c4ccco4)cc(C(F)(F)F)n3n2)cn1 | > 42 µM (inactive)
CC(C)=CC(=O)N1CCCC(N2CCN(c3ccc(F)cc3)CC2)C1 (stereo unspecified) | > 42 µM (inactive)
Cc1nn(C)c(Cl)c1CN1CCN(CCC(C)C)C(CCO)C1 (stereo unspecified) | > 42 µM (inactive)
COc1ccc(S(=O)(=O)N2CCCOC2CNC(=O)C(=O)NCCCN2CCOCC2)cc1C (stereo unspecified) | > 42 µM (inactive)
O=C(c1ccc(COc2ccccc2Cl)o1)N1N=C(C(F)F)CC1(O)C(F)F (stereo unspecified) | > 42 µM (inactive)
O=C(Cn1sc2ccccc2c1=O)NC12CC3CC(CC(C3)C1)C2 | 20.7 µM
CCSc1nc2ccccc2c(=O)n1C1CCOC(C)(C)C1 (stereo unspecified) | > 42 µM (inactive)

Structure (SMILES) | AC50
CCOc1ccc(N2CC(C(=O)OC)CC2=O)cc1 (stereo unspecified) | > 42 µM (inactive)
Cc1ccc(NS(=O)(=O)c2csc(C(N)=O)c2)cc1C | > 42 µM (inactive)
C[C@@]12C(=O)Nc3ccc(F)cc3C(=O)N1[C@H]1c3ccccc3OC[C@@H]1[C@@H]2c1ccccc1 | 3.24 µM
Cc1c(C(=O)NC(=S)Nc2ccccc2N2CCCC2)cccc1[N+](=O)[O-] | > 42 µM (inactive)
O=C(O)C1C2CCCCC2=C2CCCCC2C1C(=O)c1ccccc1 (stereo unspecified) | 3.26 µM
Cc1c(NC(=O)C(C)Sc2nnc(-c3ccccc3)o2)c(=O)n(-c2ccccc2)n1C (stereo unspecified) | > 42 µM (inactive)
O=C(Nc1nnc(-c2ccco2)o1)c1ccc(S(=O)(=O)N2CCCC2)cc1 | > 42 µM (inactive)
O=C(O)CCc1ccc(-c2ccccc2)n1NC(=O)c1cccs1 | > 42 µM (inactive)
C/C(=N\NC(=O)c1ccc(Cl)cc1)c1cccnc1 | > 42 µM (inactive)
CC1(C)CC(=O)c2cnc(NC(=O)CSc3nc4ccccc4o3)nc2C1 | > 42 µM (inactive)
Cc1cccc(CS(=O)(=O)Cc2ccc(C(=O)NCC3CCCO3)o2)c1 (stereo unspecified) | > 42 µM (inactive)
Cc1ccc(C(=O)/C=C/Nc2ccccc2C(N)=O)cc1 | > 42 µM (inactive)
COc1ccc(-c2cc(C(=O)Nc3cc(C)ccc3O)no2)cc1 | > 42 µM (inactive)
Cc1cc(-c2ccc(Cl)cc2Cl)c(C#N)c(=O)[nH]1 | > 42 µM (inactive)
COc1cc2c(cc1OC)CN(C(=O)Cc1c(F)cccc1Cl)CC2 | > 42 µM (inactive)
COc1ccc(C(=O)NCCSc2ccc(C)cc2)cc1 | > 42 µM (inactive)
Cc1cc(/C=C2\C(=O)NC(=O)N(c3ccccc3F)C2=O)c(C)n1-c1cc(C(=O)O)cc(C(=O)O)c1 | > 42 µM (inactive)
O=C(c1ccco1)N1CCN(C(=O)C2Cc3ccccc3CN2S(=O)(=O)c2ccc(F)cc2)CC1 (stereo unspecified) | > 42 µM (inactive)
O=C(NCC1CCCO1)c1nn2c(C(F)(F)F)cc(-c3cc(Br)cs3)nc2c1Br (stereo unspecified) | > 42 µM (inactive)
CC(C)c1cc(C(=O)N/N=C/C(Br)=C/c2ccccc2)n[nH]1 | 6.05 µM
COc1cccc(Nc2nc(C)nc3c2oc2ccccc23)c1 | > 42 µM (inactive)
O=C(NCc1ccccc1Cl)c1ccc2c(c1)OCO2 | 30.4 µM
N#CCSc1nc2c(c(C3CC=CCC3)c1C#N)CCC2 (stereo unspecified) | > 42 µM (inactive)
